In patent US11542295B2, “Use of 20-hydroxyecdysone and the derivatives thereof in the treatment of myopathies” (BIOPHYTIS, priority 2017, dated 2023):

Experiments:
[1] = tested on: C57BL10 mdx mice (mouse model of Duchenne muscular dystrophy); test: Exertion tolerance test (forced motorised treadmill, maximum distance travelled); assay type: in vivo; conditions: 50 mg/kg*day per os, two months of treatment
Experimental: Twelve-week-old […] gene pool (wild mice referred to as “C57” in the figures) and […] mdx (mouse model of Duchenne muscular dystrophy, referred to as “mdx” in the figures) male mice, produced at Charles Rivers, were used. Two groups of mdx were chronically exposed per os either to BIO101 (number of mice n=9) or to BIO103 (number of mice n=9) at a dose of 50 mg/kg*day. A group of C57 mice (number of mice n=5) and a group of mdx mice (number of mice n=15) received the vehicle, i.e. no treatment. The animals of all of the groups were tested for their functional capacity (exertion tolerance test) after two months of treatment. The exertion tolerance test consists of measuring the maximum distance travelled (in-toto activity; FIGS. 1A and 1B). Furthermore, measurements of the maximum absolute isometric strength of the tibialis anterior muscle (in-situ activity; FIGS. 2A and 2B) were made after two months of treatment. The two-month oral treatment consists of force-feeding for five days a week and in drinking water two days a week. The exertion tolerance test is a forced motored treadmill exercise. It is a non-invasive method for assessing in-toto skeletal function. It is gold standard method in the field (Ferry et al. 1992, 1993; Hadj-Said et al. 2012). The acclimatisation period of the animals is at least 48 hours prior to the session during which the maximum running distance is measured. During the test, the mouse is placed in a running corridor on a motorised treadmill which enables a exercise controlled by the tester in the intensity and duration thereof. The treadmill ends with a horizontal grid which administers an electric shock (0.4 mA) if the animal is in contact for more than one second with the grid. The running session starts with a 2-minute warm-up period during which the speed is increased from 0 to 20 cm/s. Subsequently, the running speed is increased by 5 cm/s every 10 minutes up to the limit of the peak capacities of the mouse. When it is subjected to 5 shocks in less than 10 seconds, the test is stopped. The distance travelled is noted.

[2] = tested on: tibialis anterior muscle of C57BL10 mdx mice; test: Maximum absolute isometric strength of the tibialis anterior muscle (in situ); assay type: in vivo, mouse; conditions: 50 mg/kg*day, two months of treatment
Experimental: Twelve-week-old […] gene pool (wild mice referred to as “C57” in the figures) and […] mdx (mouse model of Duchenne muscular dystrophy, referred to as “mdx” in the figures) male mice, produced at Charles Rivers, were used. Two groups of mdx were chronically exposed per os either to BIO101 (number of mice n=9) or to BIO103 (number of mice n=9) at a dose of 50 mg/kg*day. A group of C57 mice (number of mice n=5) and a group of mdx mice (number of mice n=15) received the vehicle, i.e. no treatment. The animals of all of the groups were tested for their functional capacity (exertion tolerance test) after two months of treatment. The exertion tolerance test consists of measuring the maximum distance travelled (in-toto activity; FIGS. 1A and 1B). Furthermore, measurements of the maximum absolute isometric strength of the tibialis anterior muscle (in-situ activity; FIGS. 2A and 2B) were made after two months of treatment. The two-month oral treatment consists of force-feeding for five days a week and in drinking water two days a week. An assessment of in-situ contractility of the tibialis anterior muscle is carried out at the end of the protocol, i.e. after two months of treatment. […] The strength is measured during contractions in response to electrical stimulation (frequency of 75-150 Hz, duration of 500 ms). […] The maximum absolute isometric tetanic strength is measured.

[3] = tested on: Human DMD skeletal muscle cells (KM571DMD10FL Cl1); test: Differentiation of human DMD myoblasts into myotubes; assay type: cell-based; conditions: 10 μM, vs untreated control cells
Experimental: Various parameters have been measured to assess myotube differentiation. Human DMD skeletal muscle cells (KM571DMD10FL Cl1) were differentiated for 3 days then incubated with or without BIO101 at 10 μM. The fusion index and the number of nuclei per myotube were validated as relevant and sensitive indicators of myotube differentiation.
The fusion index illustrated in FIG. 7A represents the percentage of differentiated cell nuclei with respect to the cell total.
The number of nuclei per myotube is illustrated in FIG. 7B, 300 myotubes were counted.
The myotube diameter is illustrated in FIG. 7C, 150 myotubes were measured per condition.
The results in FIGS. 7A,7B and 7C show the mean data measured during three independent experiments, plus or minus the standard error (SEM).

Structure (SMILES)	improvement of overall physical performances (in-toto activity) [1] [fold]	improvement of the distance travelled compared to untreated mdx animals (vehicle) [1]	increase in the maximum absolute isometric strength of the tibialis anterior muscle compared to mdx animals receiving the vehicle [2]	increase in the myotube diameter ([3]; p<0.001) [%]	increase of the fusion index ([3]; p<0.001)	increase in the number of nuclei per myotube ([3]; p<0.01) [%]
CCSCC(=O)[C@H]1CC[C@@]2(O)C3=CC(=O)[C@@H]4C[C@@H](O)[C@@H](O)C[C@]4(C)C3CC[C@]12C (stereo partly drawn) [BIO103, (2S,3R,5R,10R,13R,14S,17S)-17-(2-ethylsulfanylacetyl)-2,3,14-trihydroxy-10,13-dimethyl-2,3,4,5,9,11,12,15,16,17-decahydro-1H-cyclopenta[a]phenanthren-6-one]	1.7	+67%	+22.5%			
CC(C)(O)CC[C@@H](O)[C@](C)(O)[C@H]1CC[C@@]2(O)C3=CC(=O)[C@@H]4C[C@@H](O)[C@@H](O)C[C@]4(C)[C@H]3CC[C@]12C [BIO101, 20-hydroxyecdysone]	2.4	+136%	+15.3%	21	+7%	34
